Here are results for nine compounds from patent publication US20230285570A1, “THERAPEUTICALLY USEFUL CURE-PRO MOLECULES FOR E3 LIGASE MEDIATED DEGRADATION OF PROTEINS, AND METHODS OF MAKING AND USING THEM” (CORNELL UNIVERSITY, priority 2020, published 2023).

Molecules are shown by their SMILES. “Also recorded” adds a separate entry of the source.

The target of test [1] is T1, c-MYC (Homo sapiens, UniProt P01106). Briefly: CURE-PRO-mediated c-MYC degradation in HT29 cells, Western blot. It counts as cell-based. On the set-up: endogenous in cells; host or cells: HT29. On the procedure:
(§1) Namalwa, Ramosm HeLa, MCF7, or HT29 HCT116 cells (2.5-3×10^6) were treated for 24 hours with the indicated compounds solubilized in DMSO. The cells were washed in ice-cold PBS and were then lysed in RIPA lysis buffer (150 mM NaCl, 5 mM EDTA, 1% NP-40, 0.5% sodium deoxycholate, 0.1% SDS, 50 mM Tris, pH 8.0.) with Roche protease inhibitor complete cocktail and phosphatase inhibitors (10 mM sodium fluoride, 10 mM sodium pyrophosphate, 1 mM sodium orthovanadate and 20 mM β-glycerophosphate). The total protein concentrations were determined by Bradford Protein Assay (Pierce) and 10-20 μg of protein was loaded onto 4-15% Tris-Glycine gradient gels (Biorad). After standard gel electrophoresis, the separated proteins were transferred to PVDF membrane by wet transfer. The immunoblots were then blocked for 1 hour in 5% skim milk in TBST or 5% BSA in TBST, according to manufacturer's instructions, before an overnight incubation at 4° C. with indicated antibodies and membranes. Membranes were then incubated with the appropriate horseradish peroxidase-conjugated secondary antibodies (1:5,000 dilution) for 1 h at room temperature and the bands were visualized using the Clarity Max Western ECL Substrate (Biorad) and the ChemiDoc Imaging System (Biorad). Signal was detected with ECL Western Blotting Substrate (Pierce) and X-ray film processed with a Konica SRX-101 X-ray film processor or captured by Bio-Rad's Chemidoc Imaging system.
HT29 cells (2.5×10^6) were treated for 24 h with the compounds solubilized in DMSO. Compounds were added at 10 nM-10 μM each, as indicated in the description of the figures. Standardized protein samples were electrophoresed and imaged as described in the immunoblotting section above. c-MYC monomers (10058-F4 derivatives comprising catechol linkers), and CRBN ligands, 8048 and 8049 (pomalidomide derivatives comprising boronic acid linkers) combined in a 1:1 ratio.
HT29 cells (2.5×10^6) were treated for 24 h with the compounds solubilized in DMSO. Compounds were added at 100 nM-10 μM each.
HT29 cells (2.5×10^6) were treated for 24 h with the compounds solubilized in DMSO. Compounds were added at 100 nM-10 μM each. Standardized protein samples were electrophoresed and imaged as described in the immunoblotting section above. c-MYC monomer, MYC-E1, (a 10058-F4 derivative comprising boronic acid linkers), and CRBN ligands, 8046, 8047 and 8066 (pomalidomide derivatives comprising diol linkers) combined in a 1:1 ratio.
HT29 cells (2.5×10^6) were treated for 24 h with the compounds solubilized in DMSO. Compounds were added at 100 nM-10 μM each. Standardized protein samples were electrophoresed and imaged as described in the immunoblotting section above. c-MYC monomers, MYC-E6 (FIG. 90), MYC-E10 (FIG. 91), and MYC-E16 (FIG. 92) (10074-G5 derivatives comprising boronic acid linkers), and CRBN ligands, 8046, 8047 and 8066 (pomalidomide derivatives comprising diol linkers) combined in a 1:1 ratio.
HT29 cells (2.5×10^6) were treated for 24 h with the compounds solubilized in DMSO. Compounds were added at 10 nM-10 μM each. Standardized protein samples were electrophoresed and imaged as described in the immunoblotting section above. c-MYC monomer, MYC-N16 (FIG. 93) (10074-G5 derivatives comprising diol linkers), and VHL ligands, 8297 and 8298 (VH-298 derivatives comprising boronic acid linkers) were combined in a 1:1 ratio.
HT29 cells (2.5×10^6) were treated for 24 h with the compounds solubilized in DMSO. Compounds were added at 10 nM-10 μM each. Standardized protein samples were electrophoresed and imaged as described in the immunoblotting section above. c-MYC monomers, MYC-E7 (FIG. 96), MYC-E10 (FIG. 97), and MYC-E17 (FIG. 98), (10074-G5 derivatives comprising boronic acid linkers), and VHL ligands, 8297 and 8298 (VH-298 derivatives comprising diol linkers) were combined in a 1:1 ratio.
On the technique in general: A western blot detects proteins with antibodies after separation by electrophoresis.

The target in test [2] is T1, c-MYC. The test can be described thus: Summary of C-MYC degradation by CURE-PRO pairs, estimated from Western Blot or WES. It counts as cell-based. On the set-up: endogenous in cells; host or cells: HT29. Particulars: for Degradation of C-MYC, combination with CRBN ligand 8046: Table 7, aryl-boronic acid MYC ligand + 8046; for Degradation of C-MYC, combination with CRBN ligand 8047: Table 7, aryl-boronic acid MYC ligand + 8047; for Degradation of C-MYC, combination with CRBN ligand 8048: Table 10, aromatic 1,2-diol MYC ligand + 8048; for Degradation of C-MYC, combination with CRBN ligand 8049: Table 10, aromatic 1,2-diol MYC ligand + 8049. The protocol: as §1
WES Simple analysis was performed on WES system (ProteinSimple-Biotechne) according to the manufacturer's instructions. Total protein concentrations of cell lysates were determined by the Pierce BCA kit (Thermo Fisher). 3 μL of 0.3 μg/μL of the protein lysate was loaded onto a 12- to 230-kDa WES assay plate (ProteinSimple) where 300 nL sample was withdrawn through a capillary, subjected to electrophoretic separation of proteins by size, and followed by the simultaneous, HRP-based detection of proteins using the Anti-Rabbit Detection Module (Proteinsimple: #DM-001). The electropherograms were checked then the automatic peak detection was manually corrected if it was required.
A black check mark indicates efficacy of 30% to 70% or higher protein degradation.

Setting [3] is: 1:1 with CRBN ligand 8046, HT29, 24 h, 100 nM-10 μM each.
Setting [4] is: 1:1 with CRBN ligand 8047, HT29, 24 h, 100 nM-10 μM each.
Setting [5] is: 1:1 with CRBN ligand 8066, HT29, 24 h, 100 nM-10 μM each.
Setting [6] is: 1:1 with VHL ligand 8298, HT29, 24 h, 10 nM-10 μM each.
Where [7] appears, read: 1:1 with CRBN ligand 8048, HT29, 24 h, 10 nM-10 μM each.
[8] abbreviates: c-MYC monomer alone, HT29, 24 h, 10 nM-10 μM.

T1 sequence (P01106 whole entry): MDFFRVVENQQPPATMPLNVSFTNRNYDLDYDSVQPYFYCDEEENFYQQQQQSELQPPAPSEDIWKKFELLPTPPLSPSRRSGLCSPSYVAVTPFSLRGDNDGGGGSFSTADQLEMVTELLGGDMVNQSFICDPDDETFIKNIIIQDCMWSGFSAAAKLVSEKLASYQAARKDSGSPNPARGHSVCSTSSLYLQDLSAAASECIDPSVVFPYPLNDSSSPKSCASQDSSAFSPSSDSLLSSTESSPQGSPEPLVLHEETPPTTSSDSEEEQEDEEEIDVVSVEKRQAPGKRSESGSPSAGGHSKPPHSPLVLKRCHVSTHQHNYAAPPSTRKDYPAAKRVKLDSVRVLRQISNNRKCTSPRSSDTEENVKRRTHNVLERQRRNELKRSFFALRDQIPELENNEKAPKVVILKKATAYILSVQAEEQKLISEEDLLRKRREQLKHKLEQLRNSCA

As for `CCc1ccc(/C=C2\SC(=O)N(Cc3cccc(B(O)O)c3)C2=O)cc1` [MYC-E1], the c-MYC degradation result in test [1] (setting [3]) is “Some degradation is seen; also recorded: causes degradation of c-MYC”; in test [1] (setting [4]), “Some degradation is seen; also recorded: no degradation was observed”; in test [1] (setting [5]) it was “no degradation was observed”. Also, the “Degradation of C-MYC, combination with CRBN ligand 8046” value (“Degradation … with CRBN ligand 8046” for short) in test [2] is recorded as “√ (A black check mark indicates efficacy of 30% to 70% or higher protein degradation)”. In addition, in test [2] (Table 7, aryl-boronic acid MYC ligand + 8066), the “Degradation of C-MYC, combination with CRBN ligand 8066” value is reported as “√ (A black check mark indicates efficacy of 30% to 70% or higher protein degradation)”.
In the case of `O=[N+]([O-])c1ccc(Nc2ccccc2-c2ccc(B(O)O)cc2)c2nonc12` [MYC-E6], the c-MYC degradation entry in test [1] (setting [3]) was “no degradation was observed”; in test [1] (setting [4]), “caused degradation of c-MYC”; in test [1] (setting [5]) it was “no degradation was observed”. Also, the “Degradation … with CRBN ligand 8046” value in test [2] is “√ (A black check mark indicates efficacy of 30% to 70% or higher protein degradation)”. Moreover, in test [2], the “Degradation of C-MYC, combination with CRBN ligand 8047” value is “√ (A black check mark indicates efficacy of 30% to 70% or higher protein degradation)”.
With `O=C(NCc1cccc(B(O)O)c1)c1ccc(Nc2ccc([N+](=O)[O-])c3nonc23)cc1` [MYC-E10], the c-MYC degradation entry in test [1] (setting [3]) was “caused c-MYC degradation”; in test [1] (setting [6]), “caused degradation of c-MYC”; in test [1] (1:1 with VHL ligand 8305, HT29, 24 h, 10 nM-10 μM each), “caused loss of c-MYC protein”. Moreover, the “Degradation … with CRBN ligand 8046” value in test [2] is listed as “√ (A black check mark indicates efficacy of 30% to 70% or higher protein degradation)”.
Turning to `Cc1ccc(CNC(=O)c2ccccc2Nc2ccc([N+](=O)[O-])c3nonc23)cc1B(O)O` [MYC-E16], the c-MYC degradation result in test [1] (setting [4]) is “Some degradation is seen; also recorded: caused c-MYC degradation”. Also, the “Degradation of C-MYC, combination with CRBN ligand 8047” value in test [2] is listed as “√ (A black check mark indicates efficacy of 30% to 70% or higher protein degradation)”.
For the compound `CCc1ccc(/C=C2\SC(=O)N(CCc3cccc(O)c3O)C2=O)cc1` [MYC-N4], the results for the c-MYC degradation entry in test [1] (setting [7]) and in test [1] (setting [8]) were “caused c-MYC degradation” and “there is no degradation of c-MYC”, respectively. For the same compound, the “Degradation of C-MYC, combination with CRBN ligand 8048” value (“Degradation … with CRBN ligand 8048” below) in test [2] is “√ (A black check mark indicates efficacy of 30% to 70% or higher protein degradation)”.
For the compound `CCc1ccc(/C=C2\SC(=O)N(CCNC(=O)c3ccc(O)c(O)c3)C2=O)cc1` [MYC-N7], the c-MYC degradation result is “cause c-MYC protein degradation; also recorded: caused degradation of c-MYC” in test [1] (setting [7]); “cause c-MYC protein degradation; also recorded: caused degradation of c-MYC” in test [1] (1:1 with CRBN ligand 8049, HT29, 24 h, 10 nM-10 μM each); “there is no degradation of c-MYC” in test [1] (setting [8]). In addition, the “Degradation of C-MYC, combination with CRBN ligand 8049” value in test [2] is recorded as “√ (A black check mark indicates efficacy of 30% to 70% or higher protein degradation)”.
As to `O=C(NCc1cccc(O)c1O)c1ccccc1Nc1ccc([N+](=O)[O-])c2nonc12` [MYC-N16], the c-MYC degradation result in test [1] (setting [7]) was “caused c-MYC degradation”; in test [1] (1:1 with VHL ligand 8297, HT29, 24 h, 10 nM-10 μM each), “caused degradation of c-MYC”; in test [1] (setting [6]), “caused degradation of c-MYC”; in test [1] (setting [8]), “there is no degradation of c-MYC; also recorded: no loss of c-MYC protein was observed”. Moreover, the “Degradation … with CRBN ligand 8048” value in test [2] was “√ (A black check mark indicates efficacy of 30% to 70% or higher protein degradation)”. Further, in test [2] (Table 11, aromatic 1,2-diol MYC ligand + 8312), the “Degradation of C-MYC, combination with MDM2 ligand 8312” value is given as “√ (A black check mark indicates efficacy of 30% to 70% or higher protein degradation)”. Moreover, the “Degradation of C-MYC, combination with VHL ligand 8297” value in test [2] (Table 12, aromatic 1,2-diol MYC ligand + 8297) is “√ (A black check mark indicates efficacy of 30% to 70% or higher protein degradation)”. Besides, the “Degradation of C-MYC, combination with VHL ligand 8298” value in test [2] (Table 12, aromatic 1,2-diol MYC ligand + 8298) was “√ (A black check mark indicates efficacy of 30% to 70% or higher protein degradation)”.
`CCc1ccc(/C=C2\SC(=O)N(CC[C@H]3C[C@@H]4C[C@H]3[C@@H](O)[C@H]4O)C2=O)cc1` [MYC-N23]: the c-MYC degradation entry is reported as “caused c-MYC degradation” in test [1] (setting [7]) and “there is no degradation of c-MYC” in test [1] (setting [8]). Also, the “Degradation of C-MYC, combination with CRBN ligand 8049” value in test [2] is recorded as “√ (A black check mark indicates efficacy of 30% to 70% or higher protein degradation)”.
Consider `CCc1ccc(/C=C2\CC(=O)N(CCNC(=O)[C@H]3C[C@@H]4C[C@H]3[C@@H](O)[C@H]4O)C2=O)cc1` [MYC-N29], for which the figures for the c-MYC degradation entry in test [1] (setting [7]) and in test [1] (setting [8]) were “caused c-MYC degradation” and “there is no degradation of c-MYC”, respectively. In addition, the “Degradation … with CRBN ligand 8048” value in test [2] was “√ (A black check mark indicates efficacy of 30% to 70% or higher protein degradation)”.
